Measured values taken from patent publication US4358441A, “Nicotinic derivatives of glucosamine and related pharmaceutical compositions” (Laboratorio Guidotti & C. S.p.A., priority 1980, dated 1982).

Columns and labels:
[1] = tested on: plasma levels of triglycerides; assay: Effect of oral administration on plasma levels of triglycerides in the empty rat; assay type: in vivo, rat (COBS CD (SD) BR male); settings: for Percent variations of plasma triglycerides with respect to the controls / Percent variations of plasma triglycerides with respect to the control: empty rat; for Time within which the effect on triglycerides disappears: rat; for Percent variations of plasma triglycerides with respect to the control: Table 5, 100 mg/kg oral referred to nicotinic acid
[2] = tested on: plasma levels of cholesterol; assay: Effect of oral administration on plasma levels of cholesterol in the empty rat; assay type: in vivo, rat (COBS CD (SD) BR male); settings: for Percent variations of plasma cholesterol with respect to the controls: 100 mg/kg oral referred to nicotinic acid; for Percent variations of plasma cholesterol with respect to the controls / Percent variations of plasma cholesterol with respect to the control: empty rat; for Lowering of cholesterolemy: 100 mg/kg oral, rat; for Percent variations of plasma cholesterol with respect to the control: Table 5, 100 mg/kg oral referred to nicotinic acid
plasma levels of FFA = assay: Effect of oral administration on plasma levels of FFA in the empty rat; settings: for Percent variations of plasma FFA with respect to the controls / Percent variations of plasma FFA with respect to the control: empty rat; for Time within which the effect on FFA disappears: 100 mg/kg oral, rat; for Percent variations of plasma FFA with respect to the control: Table 5, 100 mg/kg oral referred to nicotinic acid
[3] = tested on: plasma levels of free glycerol; assay: Effect of oral administration on plasma levels of free glycerol in the empty rat; assay type: in vivo, rat (COBS CD (SD) BR male); settings: for Percent variations of plasma free glycerol with respect to the controls: empty rat; for Activity on free glycerol: 30 mg/kg oral; for Activity on free glycerol / Time within which the effect on free glycerol disappears: rat; for Time within which the effect on free glycerol disappears: 100 mg/kg oral
Solubility = assay type: physicochemical
[4] = 30 mg/kg oral referred to nicotinic acid, 1 h
[5] = 30 mg/kg oral referred to nicotinic acid, 2 h
[6] = 30 mg/kg oral referred to nicotinic acid, 4 h
[7] = 30 mg/kg oral referred to nicotinic acid, 6 h
[8] = 100 mg/kg oral referred to nicotinic acid, 2 h
[9] = 100 mg/kg oral referred to nicotinic acid, 4 h
[10] = 100 mg/kg oral referred to nicotinic acid, 6 h
[11] = 100 mg/kg oral referred to nicotinic acid, 8 h
[12] = 100 mg/kg oral referred to nicotinic acid, 10 h
[13] = 100 mg/kg oral referred to nicotinic acid, 16 h
[14] = 100 mg/kg oral referred to nicotinic acid, 24 h

O=C(OCC(COC(=O)c1cccnc1)(COC(=O)c1cccnc1)COC(=O)c1cccnc1)c1cccnc1 [NICERITROLE, pentaerithritol-tetranicotinate]
Percent variations of plasma triglycerides with respect to the controls [1, 4]: -45% | Percent variations of plasma triglycerides with respect to the controls [1, 5]: -27% | Percent variations of plasma triglycerides with respect to the controls [1, 6]: +13% | Percent variations of plasma triglycerides with respect to the controls [1, 7]: -6% | Time within which the effect on triglycerides disappears ([1]; 30 mg/kg oral): ≤ 2 h | Percent variations of plasma triglycerides with respect to the controls [1, 8]: -41% | Percent variations of plasma triglycerides with respect to the controls [1, 9]: -56% | Percent variations of plasma triglycerides with respect to the controls [1, 10]: -63% | Percent variations of plasma triglycerides with respect to the controls [1, 11]: -30% | Percent variations of plasma triglycerides with respect to the controls [1, 12]: +9% | Percent variations of plasma triglycerides with respect to the controls [1, 13]: -3% | Percent variations of plasma triglycerides with respect to the controls [1, 14]: +5% | Time within which the effect on triglycerides disappears ([1]; 100 mg/kg oral): within the eighth hour | Percent variations of plasma cholesterol with respect to the controls ([2]; 4 h): -2% | Percent variations of plasma cholesterol with respect to the controls ([2]; 6 h): -7% | Percent variations of plasma cholesterol with respect to the controls ([2]; 8 h): 0% | Percent variations of plasma cholesterol with respect to the controls ([2]; 10 h): -10% | Percent variations of plasma cholesterol with respect to the controls ([2]; 16 h): -17% | Percent variations of plasma cholesterol with respect to the controls ([2]; 24 h): -14% | Lowering of cholesterolemy [2]: never significant | Percent variations of plasma FFA with respect to the controls (plasma levels of FFA; [4]): -87% | Percent variations of plasma FFA with respect to the controls (plasma levels of FFA; [5]): -18% | Percent variations of plasma FFA with respect to the controls (plasma levels of FFA; [6]): +9% | Percent variations of plasma FFA with respect to the controls (plasma levels of FFA; [7]): +8% | Percent variations of plasma FFA with respect to the controls (plasma levels of FFA; [8]): -70% | Percent variations of plasma FFA with respect to the controls (plasma levels of FFA; [9]): -43% | Percent variations of plasma FFA with respect to the controls (plasma levels of FFA; [10]): +27% | Percent variations of plasma FFA with respect to the controls (plasma levels of FFA; [11]): +10% | Percent variations of plasma FFA with respect to the controls (plasma levels of FFA; [12]): -2% | Percent variations of plasma FFA with respect to the controls (plasma levels of FFA; [13]): +6% | Percent variations of plasma FFA with respect to the controls (plasma levels of FFA; [14]): -8% | Time within which the effect on FFA disappears (plasma levels of FFA): ≤ 6 h | Percent variations of plasma free glycerol with respect to the controls [3, 4]: -77% | Percent variations of plasma free glycerol with respect to the controls [3, 5]: -9% | Percent variations of plasma free glycerol with respect to the controls [3, 6]: -4% | Percent variations of plasma free glycerol with respect to the controls [3, 7]: +11% | Activity on free glycerol [3]: active only after 1 hour | Percent variations of plasma free glycerol with respect to the controls [3, 8]: -61% | Percent variations of plasma free glycerol with respect to the controls [3, 9]: -34% | Percent variations of plasma free glycerol with respect to the controls [3, 10]: +17% | Percent variations of plasma free glycerol with respect to the controls [3, 11]: +11% | Percent variations of plasma free glycerol with respect to the controls [3, 12]: +4% | Percent variations of plasma free glycerol with respect to the controls [3, 13]: +13% | Percent variations of plasma free glycerol with respect to the controls [3, 14]: +3% | Time within which the effect on free glycerol disappears [3]: within the fourth hour

O=C(OC[C@H](OC(=O)c1cccnc1)[C@@H](OC(=O)c1cccnc1)[C@H](OC(=O)c1cccnc1)[C@@H](COC(=O)c1cccnc1)OC(=O)c1cccnc1)c1cccnc1 [SORBINICATE, D-glucitol hexanicotinate]
Percent variations of plasma triglycerides with respect to the controls [1, 4]: -42% | Percent variations of plasma triglycerides with respect to the controls [1, 5]: -16% | Percent variations of plasma triglycerides with respect to the controls [1, 6]: +6% | Percent variations of plasma triglycerides with respect to the controls [1, 7]: -3% | Time within which the effect on triglycerides disappears ([1]; 30 mg/kg oral): ≤ 2 h | Percent variations of plasma triglycerides with respect to the controls [1, 8]: -61% | Percent variations of plasma triglycerides with respect to the controls [1, 9]: -46% | Percent variations of plasma triglycerides with respect to the controls [1, 10]: -55% | Percent variations of plasma triglycerides with respect to the controls [1, 11]: -5% | Percent variations of plasma triglycerides with respect to the controls [1, 12]: +9% | Percent variations of plasma triglycerides with respect to the controls [1, 13]: -3% | Percent variations of plasma triglycerides with respect to the controls [1, 14]: -25% | Time within which the effect on triglycerides disappears ([1]; 100 mg/kg oral): within the eighth hour | Percent variations of plasma cholesterol with respect to the controls ([2]; 4 h): -14% | Percent variations of plasma cholesterol with respect to the controls ([2]; 6 h): -15% | Percent variations of plasma cholesterol with respect to the controls ([2]; 8 h): -7% | Percent variations of plasma cholesterol with respect to the controls ([2]; 10 h): -15% | Percent variations of plasma cholesterol with respect to the controls ([2]; 16 h): -13% | Percent variations of plasma cholesterol with respect to the controls ([2]; 24 h): -9% | Lowering of cholesterolemy [2]: at the tenth hour only | Percent variations of plasma FFA with respect to the controls (plasma levels of FFA; [4]): -56% | Percent variations of plasma FFA with respect to the controls (plasma levels of FFA; [5]): -14% | Percent variations of plasma FFA with respect to the controls (plasma levels of FFA; [6]): +13% | Percent variations of plasma FFA with respect to the controls (plasma levels of FFA; [7]): -9% | Percent variations of plasma FFA with respect to the controls (plasma levels of FFA; [8]): -72% | Percent variations of plasma FFA with respect to the controls (plasma levels of FFA; [9]): -1% | Percent variations of plasma FFA with respect to the controls (plasma levels of FFA; [10]): +6% | Percent variations of plasma FFA with respect to the controls (plasma levels of FFA; [11]): +4% | Percent variations of plasma FFA with respect to the controls (plasma levels of FFA; [12]): -5% | Percent variations of plasma FFA with respect to the controls (plasma levels of FFA; [13]): +6% | Percent variations of plasma FFA with respect to the controls (plasma levels of FFA; [14]): +2% | Time within which the effect on FFA disappears (plasma levels of FFA): ≤ 4 h | Percent variations of plasma free glycerol with respect to the controls [3, 4]: -59% | Percent variations of plasma free glycerol with respect to the controls [3, 5]: -27% | Percent variations of plasma free glycerol with respect to the controls [3, 6]: +2% | Percent variations of plasma free glycerol with respect to the controls [3, 7]: -7% | Activity on free glycerol [3]: active only after 1 hour | Percent variations of plasma free glycerol with respect to the controls [3, 8]: -70% | Percent variations of plasma free glycerol with respect to the controls [3, 9]: -3% | Percent variations of plasma free glycerol with respect to the controls [3, 10]: +3% | Percent variations of plasma free glycerol with respect to the controls [3, 11]: +20% | Percent variations of plasma free glycerol with respect to the controls [3, 12]: +8% | Percent variations of plasma free glycerol with respect to the controls [3, 13]: -1% | Percent variations of plasma free glycerol with respect to the controls [3, 14]: -1% | Time within which the effect on free glycerol disappears [3]: within the fourth hour

N[C@H]1C(OC(=O)c2cccnc2)O[C@H](COC(=O)c2cccnc2)[C@@H](OC(=O)c2cccnc2)[C@@H]1OC(=O)c1cccnc1 (stereo partly drawn) [glucosamine tetranicotinate, Glucosamine tetranicotinate]
Percent variations of plasma triglycerides with respect to the control ([1]; 2 h): -54% | Percent variations of plasma triglycerides with respect to the control ([1]; 4 h): -53% | Percent variations of plasma triglycerides with respect to the control ([1]; 8 h): -82% | Percent variations of plasma cholesterol with respect to the control ([2]; 4 h): -16% | Percent variations of plasma cholesterol with respect to the control ([2]; 8 h): -26% | Percent variations of plasma cholesterol with respect to the control ([2]; 24 h): -59% | Percent variations of plasma FFA with respect to the control (plasma levels of FFA; 2 h): -70% | Percent variations of plasma FFA with respect to the control (plasma levels of FFA; 4 h): -48% | Percent variations of plasma FFA with respect to the control (plasma levels of FFA; 8 h): -65% | Solubility (Solubility): soluble in the common organic solvents and in acid solutions

O=C(N[C@H]1[C@@H](OC(=O)c2cccnc2)O[C@H](COC(=O)c2cccnc2)[C@@H](OC(=O)c2cccnc2)[C@@H]1OC(=O)c1cccnc1)c1cccnc1 [α, α-N-nicotinoyl-glucosamine tetranicotinate]
Percent variations of plasma triglycerides with respect to the control ([1]; 2 h): -56% | Percent variations of plasma triglycerides with respect to the control ([1]; 4 h): -68% | Percent variations of plasma triglycerides with respect to the control ([1]; 8 h): -47% | Percent variations of plasma cholesterol with respect to the control ([2]; 4 h): -4% | Percent variations of plasma cholesterol with respect to the control ([2]; 8 h): -12% | Percent variations of plasma cholesterol with respect to the control ([2]; 24 h): -44% | Percent variations of plasma FFA with respect to the control (plasma levels of FFA; 2 h): -64% | Percent variations of plasma FFA with respect to the control (plasma levels of FFA; 4 h): -13% | Percent variations of plasma FFA with respect to the control (plasma levels of FFA; 8 h): -7% | Solubility (Solubility): soluble in the common non-polar organic solvents

O=C(N[C@H]1[C@H](OC(=O)c2cccnc2)O[C@H](COC(=O)c2cccnc2)[C@@H](OC(=O)c2cccnc2)[C@@H]1OC(=O)c1cccnc1)c1cccnc1 [β, β-N-nicotinoyl-glucosamine tetranicotinate]
Percent variations of plasma triglycerides with respect to the control ([1]; 2 h): -53% | Percent variations of plasma triglycerides with respect to the control ([1]; 4 h): -77% | Percent variations of plasma triglycerides with respect to the control ([1]; 8 h): -69% | Percent variations of plasma cholesterol with respect to the control ([2]; 4 h): -2% | Percent variations of plasma cholesterol with respect to the control ([2]; 8 h): -17% | Percent variations of plasma cholesterol with respect to the control ([2]; 24 h): -43% | Percent variations of plasma FFA with respect to the control (plasma levels of FFA; 2 h): -67% | Percent variations of plasma FFA with respect to the control (plasma levels of FFA; 4 h): -30% | Percent variations of plasma FFA with respect to the control (plasma levels of FFA; 8 h): -44% | Solubility (Solubility): slightly soluble in acetone, ethanol and chloroform, but soluble in dilute acids
